According to patent US20190151369A1, “Engineered Stem Cell Therapy for Cardiac Repair” (Emory University, priority 2014, published 2019):
Where no end group is shown, it is not given here. The star is where a group is joined. Palmitoyl = CCCCCCCCCCCCCCCC(=O)*

Assays:
[1] = Mechanical properties of self-assembled PA-RGDS gel (storage modulus); format: physicochemical
Text: Cardiomyocytes (CMs) derived from pluripotent stem cells (PSCs) including both embryonic stem cells (ESCs) and the induced pluripotent stem cells (iPSCs) are useful for generating new CMs in injured hearts, with PA-RGDS, which addresses low cell survival. The PA-RGDS provides a protective microenvironment for CMs in vivo. An important aspect of the PA-RGDS is the physical properties of the gels, which can be tuned to provide mechanical strength. […] PA-RGDS nanomatrix gels were also observed to be structurally stable with well-defined cylindrical shape and increased durability for handling and transport. This is particularly important for early cell survival, as cardiac tissue scaffolds require enough mechanical strength to resist the cardiac cycle, but enough flexibility to allow the contractile function of implanted CMs. The mechanical strength of PA-RGDS can be tuned for the application.

mouse experimental MI [2] = assay: Echocardiography (EF, FS) in mouse myocardial infarction model; format: in vivo; details: up to 4 weeks after MI induction
Text: (§1) Myocardial infarction (MI) was induced in mice by ligation of the left anterior descending coronary artery, and cells or other reagents were intramyocardially injected through 30 G needles at two different sites in the border zone of the myocardium immediately after surgery. Mice were randomly assigned into four treatment groups: (i) PBS as a control group, (ii) 2×10^5 mESCs-derived CMs only, (iii) PA-RGDS only, or (iv) 2×10^5 mESCs-derived CMs encapsulated with PA-RGDS. Due to the limiting factor of murine heart size and the requirement to deliver a large quantity of cells, only one concentration ratio of PA […] to cells was used for the studies. All CMs were obtained from the same differentiation batch and prelabeled with CM-DiI (red fluorescence) before cell injection for cell tracking in histology.
Next, the therapeutic effects of treatments with CM only, PA-RGDS only and mESC-CMs with PA-RGDS, comparing with PBS control in ischemic myocardium in mice was investigated. Echocardiography was performed regularly to measure cardiac remodeling and function (FIG. 6A).
Prior studies reported that the beneficial effects from treatment with various types of stem cells or stem cell derived cells were substantially diminished by 3-4 weeks, mostly due to massive cell death or ejection from the myocardium. […] (FIG. 7A)

RNVCMs = assay: Live/Dead assay after H2O2 treatment (simulated ischemic injury in vitro); format: cell-based; details: H2O2 (200 μM) treatment
Text: Since oxidative stress in the ischemic heart is increasingly recognized as a possible cause for poor survival of transplanted cells, whether encapsulation of the CMs with PA-RGDS increases their survival when exposed to the H2O2 simulating ischemic condition in vitro was investigated.

mouse experimental MI [3] = assay: Scar area by Masson's trichrome staining of infarcted hearts; format: in vivo; details: 4 weeks after MI induction, N=6
Text: as §1
Masson's Trichrome staining was performed with fixed sections of infarcted hearts to evaluate the extent of scar formation 4 weeks after MI induction.

With “CH3(CH2)14CONH-GTAGLIGQ-RGDS (Palmitoyl-GTAGLIGQRGDS) [PA-RGDS, gels made 1:1 with PA-S]” the “Storage modulus (G′)” value [1] was “around 100 Pa”, the “Cardiac function (EF and FS) by echocardiography” value (mouse experimental MI [2]) was “dramatically reduced” and the “Live cells (Live/Dead assay) after H2O2” value (RNVCMs) was “increased cell survival”. The Scar area (mouse experimental MI [3]) was 41.7±4.7%.
